Data reported in patent publication US11332475B2, “Optically active pyranochromenyl phenol derivative and pharmaceutical composition comprising same” (GLACEUM, INC., priority 2016, dated 2022).

Assays:
Format in all cases: in vivo
[1] = tested on: diet induced obesity (DIO) mouse; test: Anti-obesity effect (body weight change) in diet induced obesity (DIO) mouse; conditions: for Anti-obesity effect (%): % body weight change by Equation 1; for Anti-obesity activity compared with other isomer/racemate: result in words
Procedure: Specifically, a 5- to 6-week-old female C57BL/6J mouse (Jackson Lab., USA) were purchased and fed with only high-fat fodder for at least 11 weeks to produce a diet induced obesity (DIO) mouse. Samples were exactly taken from a control and the racemic compound, the R-enantiomer (Compound 2a) and the S-enantiomer (Compound 2b) in Example 1 according to the administration dose (0, 20, and 50 mg/kg) and put into Falcon tubes, 3 ml of a 0.5% aqueous methyl cellulose solution was added thereto, and the resulting mixture was gently mixed by means of a vortex mixer. Thereafter, the mixture was homogenized by using a homogenizer (30,000 rpm, Ultra-Turrax® T10 Basic, IKA) for 3 minutes while 1.5 ml of a 0.5% aqueous methyl cellulose solution was added thereto. The sample thus prepared was administered through the oral gavage once daily for 6 weeks by using a disposable plastic syringe. The body weight was measured once a week while the DIO mouse was bred in this manner.
Based on the data thus measured, the anti-obesity effect was calculated according to the following Equation 1. Anti-obesity effect (%)={(Body weight after compound is administered)−(Body weight before compound is administered)}/(Body weight before compound is administered))×100 [Equation 1]
For the anti-obesity efficacy of the R-enantiomer (Compound 3a) and the S-enantiomer (Compound 3b) of the optically active pyranochromenylphenol compound prepared in Example 2, an experiment was performed in the same manner as in Experimental Example 1.
Based on the data thus measured, the anti-obesity effect was calculated according to Equation 1.

C57BLKS/J-db/db mice [2] = test: Change in glycated hemoglobin of db/db mouse; conditions: average; for Glycated hemoglobin (HbAlc, %), before administration: 300 mg/kg group, before administration (baseline); for Glycated hemoglobin (HbAlc, %), 29th day after administration / Glycated hemoglobin (HbAlc, %), 43rd day after administration: 300 mg/kg
Procedure: (§1) Specifically, 5-week-old male C57BLKS/J-db/db mice (Central Lab. Animal Inc., Korea) were purchased and acclimatized for 2 weeks, and then used in the present experiment. The R-enantiomer (Compound 3a) and the S-enantiomer (Compound 3b) prepared in Example 2 were weighed (CP423S, Sartorius, Germany) according to the administration dose and put into 50 ml tubes, an excipient (10% LM 2125 CS MCT solution) stored at room temperature was added thereto, and then the resulting mixture was stirred by means of a vortex mixer so as to dissolve the excipient. Thereafter, the solution was ultrasonically treated for about 10 minutes, and a stock solution was prepared by formulating the solution at a predetermined concentration. A 0.5% aqueous MC solution as an excipient was added to the prepared stock solution, the resulting mixture was gently stirred by means of a vortex mixer, homogenized and prepared by means of a homogenizer (PT-1600E, Kinematica, Switzerland) at 30,000 rpm for 3 minutes, and then a solution was prepared at a final predetermined concentration by performing ultrasonic wave treatment for 30 minutes. The sample thus prepared was administered through the oral gavage once daily for 6 weeks by using a disposable plastic syringe with a zonde for oral administration attached.
By using the same method as in Experimental Example 3, a racemic compound of Compound 1, Compound 1a being an R-enantiomer, a racemic compound of Compound 3 prepared in Example 2 and Compound 3a being an R-enantiomer were administered to the C57BLKS/J-db/db mice, and then the anti-diabetes effects were confirmed.
The following Table 5 is a result of measuring a change in glycated hemoglobin of the db/db mouse according to the administration of the normal group, the negative control the racemic compound of Compound 1, Compound 1a being the R-enantiomer, the racemic Compound of Compound 3 prepared in Example 2 and Compound 3a being the R-enantiomer.

C57BLKS/J-db/db mice [3] = test: Glucose tolerance test in db/db mice; conditions: db/db mouse; for Blood sugar (mg/dl), 15 min after administration of glucose / Blood sugar (mg/dl), 30 min after administration of glucose / Blood sugar (mg/dl), 60 min after administration of glucose / Blood sugar (mg/dl), 120 min after administration of glucose / Blood sugar (mg/dl), 180 min after administration of glucose / Blood sugar (mg/dl), 240 min after administration of glucose / Blood sugar (mg/dl), 0 min after administration of glucose / AUC of blood sugar: 48th day, average; for Blood sugar (mg/dl), 15 min after administration of glucose / Blood sugar (mg/dl), 30 min after administration of glucose / Blood sugar (mg/dl), 60 min after administration of glucose / Blood sugar (mg/dl), 120 min after administration of glucose / Blood sugar (mg/dl), 180 min after administration of glucose / Blood sugar (mg/dl), 240 min after administration of glucose / Blood sugar (mg/dl), 0 min after administration of glucose: glucose 2 g/kg oral; for Blood sugar (mg/dl), 0 min after administration of glucose: before glucose; for AUC of blood sugar: glucose tolerance test 0-240 min, Phoenix WinNonlin
Procedure: as §1
While the C57BLKS/J-db/db mouse was bred, the mouse was fasted for 14 to 16 hours on the 48th day after administration, and then a glucose tolerance test was performed by orally administering glucose (Lot No: SLBM9269V, Sigma-Aldrich. USA) at a dose of 2 g/kg to the mice. Specifically, blood was collected from the caudal vein seven times in total including before the administration of glucose, at 15 minutes after the administration of glucose, at 30 minutes after the administration of glucose, at 60 minutes after the administration of glucose, at 120 minutes after the administration of glucose, at 180 minutes after the administration of glucose, and at 240 minutes after the administration of glucose. Thereafter, blood sugar was measured by using two blood sugar meters (AGM-4000, Allmedicus Inc., Korea), and then an average blood sugar was calculated by using each blood sugar measurement value. The area under the blood concentration-time curve (AUC) for the blood sugar value at each measurement time point was calculated by using a Phoenix WinNonlin program.

[4] = 50 mg/kg oral gavage once daily for 6 weeks
[5] = 200 mg/kg oral gavage once daily for 6 weeks

| SMILES | Anti-obesity effect (%) [1, 4] [%] | Anti-obesity activity compared with other isomer/racemate [1] | Glycated hemoglobin (HbAlc, %), before administration (C57BLKS/J-db/db mice [2]) [%] | Glycated hemoglobin (HbAlc, %), 29th day after administration (C57BLKS/J-db/db mice [2]) [%] | Glycated hemoglobin (HbAlc, %), 43rd day after administration (C57BLKS/J-db/db mice [2]) [%] | Anti-obesity effect (%) [1, 5] [%] | Blood sugar (mg/dl), 15 min after administration of glucose (C57BLKS/J-db/db mice [3]; 100 mg/kg oral once daily) [mg/dL] | Blood sugar (mg/dl), 30 min after administration of glucose (C57BLKS/J-db/db mice [3]; 100 mg/kg oral once daily) [mg/dL] | Blood sugar (mg/dl), 60 min after administration of glucose (C57BLKS/J-db/db mice [3]; 100 mg/kg oral once daily) [mg/dL] | Blood sugar (mg/dl), 120 min after administration of glucose (C57BLKS/J-db/db mice [3]; 100 mg/kg oral once daily) [mg/dL] | Blood sugar (mg/dl), 180 min after administration of glucose (C57BLKS/J-db/db mice [3]; 100 mg/kg oral once daily) [mg/dL] | Blood sugar (mg/dl), 240 min after administration of glucose (C57BLKS/J-db/db mice [3]; 100 mg/kg oral once daily) [mg/dL] | Blood sugar (mg/dl), 0 min after administration of glucose (C57BLKS/J-db/db mice [3]; 100 mg/kg oral once daily) [mg/dL] | AUC of blood sugar (C57BLKS/J-db/db mice [3]; 100 mg/kg oral once daily) [mg/dL/min] | further results |
| --- | --- | --- | --- | --- | --- | --- | --- | --- | --- | --- | --- | --- | --- | --- | --- |
| CCOc1ccc([C@@H]2COc3c(ccc4c3CCC(C)(C)O4)C2)c(O)c1 [Compound 2a, (R)-3-(2-hydroxy-4-ethoxyphenyl)-8,8-dimethyl-2,3,4,8,9,10-hexahydropyrano[2,3-f]chromene] | 7.58 | – | – | – | – | – | – | – | – | – | – | – | – | – | – |
| CCOc1ccc([C@H]2COc3c(ccc4c3CCC(C)(C)O4)C2)c(O)c1 [Compound 2b, (S)-3-(2-hydroxy-4-ethoxyphenyl)-8,8-dimethyl-2,3,4,8,9,10-hexahydropyrano[2,3-f]chromene] | −10.99 | better effect of suppressing an increase in body weight than the racemic compound and Compound 2a | – | – | – | – | – | – | – | – | – | – | – | – | – |
| CCCOc1ccc([C@@H]2COc3c(ccc4c3CCC(C)(C)O4)C2)c(O)c1 [Compound 3a, (R)-3-(2-hydroxy-4-propoxyphenyl)-8,8-dimethyl-2,3,4,8,9,10-hexahydropyrano[2,3-f]chromene] | – | – | 4.7 | 7.1 | 5.3 | −8.1 | 473 | 527 | 541 | 200 | 176 | 184 | 193 | 526 | Blood sugar (mg/dl), 15 min after administration of glucose (C57BLKS/J-db/db mice [3]; 150 mg/kg oral once daily): 440 mg/dL; Blood sugar (mg/dl), 30 min after administration of glucose (C57BLKS/J-db/db mice [3]; 150 mg/kg oral once daily): 469 mg/dL; Blood sugar (mg/dl), 60 min after administration of glucose (C57BLKS/J-db/db mice [3]; 150 mg/kg oral once daily): 460 mg/dL; Blood sugar (mg/dl), 120 min after administration of glucose (C57BLKS/J-db/db mice [3]; 150 mg/kg oral once daily): 234 mg/dL; Blood sugar (mg/dl), 180 min after administration of glucose (C57BLKS/J-db/db mice [3]; 150 mg/kg oral once daily): 153 mg/dL; Blood sugar (mg/dl), 240 min after administration of glucose (C57BLKS/J-db/db mice [3]; 150 mg/kg oral once daily): 163 mg/dL; Blood sugar (mg/dl), 0 min after administration of glucose (C57BLKS/J-db/db mice [3]; 150 mg/kg oral once daily): 175 mg/dL; AUC of blood sugar (C57BLKS/J-db/db mice [3]; 150 mg/kg oral once daily): 481 mg/dL/min; Blood sugar (mg/dl), 15 min after administration of glucose (C57BLKS/J-db/db mice [3]; 200 mg/kg oral once daily): 488 mg/dL; Blood sugar (mg/dl), 30 min after administration of glucose (C57BLKS/J-db/db mice [3]; 200 mg/kg oral once daily): 507 mg/dL; Blood sugar (mg/dl), 60 min after administration of glucose (C57BLKS/J-db/db mice [3]; 200 mg/kg oral once daily): 437 mg/dL; Blood sugar (mg/dl), 120 min after administration of glucose (C57BLKS/J-db/db mice [3]; 200 mg/kg oral once daily): 223 mg/dL; Blood sugar (mg/dl), 180 min after administration of glucose (C57BLKS/J-db/db mice [3]; 200 mg/kg oral once daily): 183 mg/dL; Blood sugar (mg/dl), 240 min after administration of glucose (C57BLKS/J-db/db mice [3]; 200 mg/kg oral once daily): 174 mg/dL; Blood sugar (mg/dl), 0 min after administration of glucose (C57BLKS/J-db/db mice [3]; 200 mg/kg oral once daily): 159 mg/dL; AUC of blood sugar (C57BLKS/J-db/db mice [3]; 200 mg/kg oral once daily): 501 mg/dL/min; Adjustment of blood sugar in glucose tolerance test, compared with other enantiomer (C57BLKS/J-db/db mice [3]; result in words): adjusted blood sugar well as compared to the S-enantiomer (Compound 3b) |
| CCOc1ccc(C2COc3c(ccc4c3CCC(C)(C)O4)C2)c(O)c1 (racemic) [Compound 2, 3-(2-hydroxy-4-ethoxyphenyl)-8,8-dimethyl-2,3,4,8,9,10-hexahydropyrano[2,3-f]chromene] | 2.29 | – | – | – | – | – | – | – | – | – | – | – | – | – | Anti-obesity effect (%) ([1]; 20 mg/kg oral gavage once daily for 6 weeks): 16.11% |
| CCCOc1ccc(C2COc3c(ccc4c3CCC(C)(C)O4)C2)c(O)c1 (racemic) [Compound 3, 3-(2-hydroxy-4-propoxyphenyl)-8,8-dimethyl-2,3,4,8,9,10-hexahydropyrano[2,3-f]chromene] | – | – | 4.7 | 6.7 | 6.2 | – | – | – | – | – | – | – | – | – | – |
| CCCOc1ccc([C@H]2COc3c(ccc4c3CCC(C)(C)O4)C2)c(O)c1 [Compound 3b, (S)-3-(2-hydroxy-4-propoxyphenyl)-8,8-dimethyl-2,3,4,8,9,10-hexahydropyrano[2,3-f]chromene] | – | better anti-obesity activity than Compound 3a | – | – | – | −19.5 | 595 | 616 | 628 | 472 | 422 | 397 | 392 | 782 | Body weight of the mouse after administration for 6 weeks ([1]; 6 weeks, FIG. 4, result in words): close to the body weight of the normal mouse |
